Marks after values point to notes of the source that are not given here.
Columns and labels:
[1] = biological target: T1, recombinant human RPE65 and LRAT (Homo sapiens, UniProt Q16518); assay: In vitro isomerase inhibition assay, recombinant human enzyme system (HEK293 homogenate); assay type: biochemical
T1 construct: expressed in transfected cells; host or cells: HEK293 cell clone (homogenate); CRALBP was made in E. coli TOP10
T1 sequence (Q16518 2-533 limits assumed): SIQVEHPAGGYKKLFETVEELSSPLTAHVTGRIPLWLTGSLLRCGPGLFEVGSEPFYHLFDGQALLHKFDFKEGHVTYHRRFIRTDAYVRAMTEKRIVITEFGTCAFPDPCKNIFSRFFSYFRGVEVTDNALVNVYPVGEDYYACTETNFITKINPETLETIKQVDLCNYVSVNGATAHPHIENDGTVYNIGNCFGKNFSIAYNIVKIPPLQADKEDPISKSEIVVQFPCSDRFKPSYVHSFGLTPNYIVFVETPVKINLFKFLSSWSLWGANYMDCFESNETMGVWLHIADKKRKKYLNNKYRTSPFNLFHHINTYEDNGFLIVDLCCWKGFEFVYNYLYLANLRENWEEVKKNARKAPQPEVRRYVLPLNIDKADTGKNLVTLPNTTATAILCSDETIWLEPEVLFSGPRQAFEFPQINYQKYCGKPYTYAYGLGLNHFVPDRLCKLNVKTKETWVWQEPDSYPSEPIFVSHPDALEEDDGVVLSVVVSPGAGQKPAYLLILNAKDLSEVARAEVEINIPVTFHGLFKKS
Method: The concentration dependent effect of the compounds disclosed herein on the retinol isomerization reaction can also be evaluated with a recombinant human enzyme system. […] A homogenate of HEK293 cell clone expressing recombinant human RPE65 and LRAT were the source of the visual enzymes, and exogenous all-trans-retinol (about 20 μM) was used as the substrate. Recombinant human CRALBP (about 80 ug/mL) was added to enhance the formation of 11-cis-retinal. The 200 μL Bis-Tris Phosphate buffer (10 mM, pH 7.2) based reaction mixture also contains 0.5% BSA, and 1 mM NaPPi. In this assay, the reaction was carried out at 37° C. in duplicates for one hour and was terminated by addition of 300 μL methanol. The amount of reaction product, 11-cis-retinol, was measured by HPLC analysis following Heptane extraction of the reaction mixture. […] The ability of the numerous compounds disclosed herein to inhibit isomerization reaction is quantified and the respective IC50 value is determined. The tables below summarises the IC50 values of various compounds of the present invention determined by either of the above two methods. FIG. 1 is a representative figure of the IC50 determination of the compound of Example 2.

[2] = system: ERG response in the eyes of mice; assay: Electroretinographic (ERG) study, C57BL/6 mice; assay type: in vivo; settings: for b-wave ampl. 0.01 cd.s/m^2: dark-adapted ERG, in µV (unit assumed); for Vmax average: light-adapted ERG
Method: This example describes determining the effect of an alkyne derivative compound that is a visual cycle modulator on the magnitude of the ERG response in the eyes of mice after oral dosing of the animals with the compound. […]
Three groups of nine-week old mice (19-25 grams), both genders (strain C5 7BL/6, Charles River Laboratories, Wilmington, Mass.) are housed at room temperature, 72±4° F., and relative humidity of approximately 25%. Animals are housed in a 12-hour light/dark cycle environment, have free access to feed and drinking water and are checked for general health and well-being prior to use and during the study. Body weights are determined for a representative sample of mice prior to initiation of dosing. The average weight determined from this sampling is used to establish the dose for all mice in the study.
(§1) Each test compound is dissolved in the control solvent (EtOH), and diluted 1:10 ([…]) in corn oil (Crisco Pure Corn Oil, J.M. Smucker Company, Orrville, Ohio) to the desired dose (mg/kg) in the desired volume (˜0.1 mL/animal). The control vehicle is ethanol: corn oil (1:10 (0.9 ml/9 ml)). The treatment designations and animal assignments are described in Table 16.
(§2) Animals are dosed once orally by gavage, with the assigned vehicle control or test compounds during the light cycle (between 30 min and 3 hours 30 min after the beginning of the light cycle).
(§3) ERG recordings are made on dark-adapted and, subsequently (during the course of the same experiment), on light-adapted states. For the dark-adapted response, animals are housed in a dark-adapted environment for at least 1 hour prior to the recording, commencing at least 30 minutes after the start of the light cycle.
(§4) Pupils were dilated by placing a 5 microliter drop of mydriatic solution (tropicamide 0.5%) in the recorded eye. A mouse corneal monopolar contact lens electrode (Mayo Corporation, Inazawa, Aichi, Japan) was placed on the cornea, and a subcutaneous reference low profile needle 12 mm electrode (Grass Telefactor, W Warwick, R.I.) was placed medial from the eye. A ground needle electrode was placed in the tail. Data collection was obtained using an Espion E^2 (Diagnosys LLC, Littleton, Mass.) ERG recording system with Color Dome Ganzfeld stimulator. Full dark-adapted intensity-response function was determined following a brief white flash stimuli of 14 intensities ranging from 0.0001 cd·s/m^2 to 333 cd·s/m^2. Subsequently, full light-adapted intensity-response function was determined following a brief white flash stimuli of 9 intensities ranging from 0.33 cd·s/m^2 to 333 cd·s/m^2. Analysis of the obtained responses was done off-line. Intensity-response function determination was done by fitting a sigmoid function to the data (Naka K I, Rushton Wash., 1966; Naka K I, Rushton Wash., 1967).

[3] = system: ERG response in the eyes of mice; assay: Electroretinographic (ERG) study, BALB/c mice; assay type: in vivo; set-up: Vmax average: unit not given beside the values; settings: for b-wave ampl. 0.01 cd.s/m^2: dark-adapted ERG, in µV (unit assumed); for Vmax average: light-adapted ERG
Method: as §1, §2, §3, §4
A related example describes determining the effect of an alkyne derivative compound that is a visual cycle modulator on the level of ERG response in the eyes of mice after oral dosing of the animals with the compound. The experimental procedure is the same as that described in the previous example with the following exceptions: 12 to 16-week old BALB/c mice were used (body weights 16-25 g).

[4] = 4 h, dose 1 (mg/kg oral), aggregated average

In the case of `CCCC(O)(C#Cc1cccc(CCCN)c1)CCC` [Example 2, 4-((3-(3-Aminopropyl)phenyl)ethynyl)heptan-4-ol], the “inhibition of isomerase activity (figure legend)” value [1] is reported as “concentration-dependent inhibition”, the “Change vs. control (%)” value ([2]; dark-adapted ERG b-wave, 4 h, dose 0.5 (mg/kg oral)) is reported as −50.65% and the “Change vs. control (%)” value ([2]; dark-adapted ERG b-wave, 4 h, dose 1 (mg/kg oral)) is reported as −94.04%. The “Change vs. control (%)” value ([2]; dark-adapted ERG b-wave, 25 h, dose 1 (mg/kg oral), compared to 4 hours vehicle) was −19.93%**, the “b-wave ampl. 0.01 cd.s/m^2” value ([2]; 4 h, dose 0.5 (mg/kg oral)) was 265 and the “b-wave ampl. 0.01 cd.s/m^2” value [2, 4] was 32*. For the same compound, the “b-wave ampl. 0.01 cd.s/m^2” value ([2]; 25 h, dose 1 (mg/kg oral)) was 430, the “Change vs. control (%)” value ([2]; light-adapted ERG Vmax, 4 h, dose 0.5 (mg/kg oral)) was 36.49% and the “Change vs. control (%)” value ([2]; light-adapted ERG Vmax, 4 h, dose 1 (mg/kg oral)) was 77.03%. The “Change vs. control (%)” value ([2]; light-adapted ERG Vmax, 25 h, dose 1 (mg/kg oral), compared to 4 hours vehicle) was 91.89%**, the Vmax average ([2]; 4 h, dose 0.5 (mg/kg oral)) was 202 and the Vmax average [2, 4] was 262*. For the same compound, the Vmax average ([2]; 25 h, dose 1 (mg/kg oral)) was 284.
In the case of `CCCC(O)(C#Cc1cccc(C(O)CCN)c1)CCC` (centres unmarked) [Example 19, 4-((3-(3-Amino-1-hydroxypropyl)phenyl)ethynyl)heptan-4-ol], the “Change vs. control (%)” value ([3]; dark-adapted ERG b-wave, 4 h, dose 0.2, BALB/c mice) is reported as −52.89%, the “Change vs. control (%)” value ([3]; dark-adapted ERG b-wave, 4 h, dose 0.3, BALB/c mice) is reported as −80.77% and the “Change vs. control (%)” value ([3]; dark-adapted ERG b-wave, 4 h, dose 0.6, BALB/c mice) is reported as −95.92%. For the same compound, the “Change vs. control (%)” value ([3]; dark-adapted ERG b-wave, 25 h, dose 0.3, BALB/c mice, compared to 4 hours vehicle) was −55.75%**, the “b-wave ampl. 0.01 cd.s/m^2” value ([3]; 4 h, dose 0.2, BALB/c mice) was 263 and the “b-wave ampl. 0.01 cd.s/m^2” value ([3]; 4 h, dose 0.3, BALB/c mice, aggregated average) was 107*. The “b-wave ampl. 0.01 cd.s/m^2” value ([3]; 4 h, dose 0.6, BALB/c mice) was 23, the “b-wave ampl. 0.01 cd.s/m^2” value ([3]; 25 h, dose 0.3, BALB/c mice) was 247 and the “Change vs. control (%)” value ([3]; light-adapted ERG Vmax, 4 h, dose 0.2, BALB/c mice) was −0.13%. The “Change vs. control (%)” value ([3]; light-adapted ERG Vmax, 4 h, dose 0.3, BALB/c mice) was 11.33%, the “Change vs. control (%)” value ([3]; light-adapted ERG Vmax, 4 h, dose 0.6, BALB/c mice) was 6.34% and the “Change vs. control (%)” value ([3]; light-adapted ERG Vmax, 25 h, dose 0.3, BALB/c mice) was 10.66%. The Vmax average ([3]; 4 h, dose 0.2, BALB/c mice) was 163, the Vmax average ([3]; 4 h, dose 0.3, BALB/c mice) was 181 and the Vmax average ([3]; 4 h, dose 0.6, BALB/c mice) was 173. The Vmax average ([3]; 25 h, dose 0.3, BALB/c mice) was 180.
